In brackets after ≈: the same amount, converted by molar mass. Marks after values point to notes of the source that are not given here.
How the values were obtained:
[1] = In vitro release of Comp-A from nanoparticles by dialysis against HBS (pH 7) at 37° C.; type: physicochemical; details: dialyzed against >1000X volume HBS (pH 7) at 37° C.
Experimental: • 5. Immediately following formulation, NPs were diluted to 4× volume in HBS. • 6. Pall 30 kDa MWCO centrifugal filters were used for solvent exchange to HBS and to concentrate formulations (2000×g, 21° C.). • 7. Particle size and polydispersity index (PDI) were analyzed using a Malvern Zetasizer (dynamic light scattering; DLS). […] Final formulations were sterile filtered through 0.22 μm syringe filters and stored at −80° C. in MrFrosty freezing containers. The following day formulations were moved to cryogenic freezer boxes for storage prior to shipping. • 9. A sample of each formulation was thawed to room temperature and dialyzed against >1000 volumes of 1×HBS (pH 7) at 37° C. for 6 hours. Samples were collected at 2 mins, 30 mins, 2 hours and 6 hours and analyzed for drug content by UPLC to determine particle release characteristics.

[2] = tested on: MDM2-amplified tumor cell line SJSA; assay: Induction of p21 mRNA by Comp-A in SJSA cells; type: cell-based
[3] = Tolerability of intravitreally administered solution of the compound of Formula (I)
Experimental: Based on expected solubility, a maximum feasible intravitreal dose of 44 μg of the compound of Formula (I) in 50 uL pH 7.85 aqueous buffer (sterile saline for injection, phosphate buffered saline or HEPES buffered saline) was administered to Dutch Belted rabbits.
Ophthalmoscopic examinations (slit lamp), ocular scoring, and intraocular pressure were observed through 5 days post-administration.

[4] = 44 μg in 50 uL pH 7.85 aqueous buffer, intravitreal, rabbit

SMILES: CC(C)[C@@H](CS(=O)(=O)C(C)C)N1C(=O)[C@@](C)(CC(=O)O)C[C@H](c2cccc(Cl)c2)[C@H]1c1ccc(Cl)cc1 [Comp-A, 2-((3R,5R,6S)-5-(3-chlorophenyl)-6-(4-chlorophenyl)-1-((S)-1-(isopropylsulfonyl)-3-methylbutan-2-yl)-3-methyl-2-oxopiperidin-3-yl) Acetic Acid]
- % Release after 2 h dialysis ([1]; 2 h): <1%
- % Release after 6 h dialysis ([1]; 6 h): 0* %
- EC50 [2]: 0.0262 µg/mL (≈ 0.0461 µM)
- Changes in intra-ocular pressure [3, 4]: no changes
- Ophthalmologic observations through 5 days [3, 4]: no ophthalmologic observations
- Tolerability ([3]; 22 microgram/eye in PBS (1×) and in HEPES buffered saline): no findings
- Tolerability ([3]; 44 microgram/eye in PBS (1×) and in HEPES buffered saline): no findings

Reference: patent US20220040166A1, “Methods and Compositions of Treating an Ophthalmic Condition” (KARTOS THERAPEUTICS, priority 2018, published 2022)
